Results as given in patent US20250154193A1, “STEROID COMPOUND, AND PREPARATION METHOD THEREFOR AND APPLICATION THEREOF” (CHOLESGEN (SHANGHAI) CO., LTD., priority 2022, published 2025).

Columns and labels:
[1] = Liver microsomal metabolic stability assay; format: in vitro ADME; settings: rat liver microsomes, NADPH, 37° C., 0-60 minutes; read-out: Rat microsomal metabolic half-life (t1/2)
Protocol: PBS solution (100 mM), MgCl2 solution (100 mM), and NADPH solution (20 mM) were prepared respectively. Compound and testosterone (positive control) stock solutions were then prepared with dimethyl sulfoxide (DMSO), diluted to 100 µM with methanol for sample incubation, and stored at −10 to −30° C. 12.5 μL of rat liver microsomes (purchased from XenoTech, Cat. No.: R1000, Lot No.: 1310030, specification: 20 mg/mL), 432.5 µL of PBS solution (100 mM), 25 µL of NADPH solution (20 mM), and 25 μL of MgCl2 solution (100 mM) were added to a 96-well plate, mixed well, and pre-incubated at 37° C. for 5 minutes. 5 µL of substrate (test compound) solution was added to start the reaction. At specified time points of 0, 5, 15, 30, 45, and 60 minutes (0 and 60 minutes for the negative control group), 50 µL of the incubated samples were added to a stop plate containing 100 µL of ice-cold stop solution, vortexed for 1 minute to inactivate the reaction, and stored at −60 to −90° C. for subsequent analysis. Sample analysis of the test compound and the control compound testosterone was performed using LC-MS/MS method. Chromatographic peaks were integrated, calculated, and processed using Analyst software. Semi-quantitative analysis was performed for both the test compound and the control compound testosterone by calculating peak area ratios.

[2] = system: SREBP pathway; test: SREBP luciferase reporter gene system (SRE-luciferase assay) in Huh-7/SRE-Luc cells; format: cell-based; settings: Homo sapiens, sterol-deficient medium, compound treatment 16 hours, luciferase/GFP ratio
Outline: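 Huh-7 cells stably carrying an LDLR promoter (SRE)-luciferase and GFP were treated for 16 hours in sterol-deficient medium (5% lipoprotein-deficient serum, 2 μM lovastatin, 10 μM mevalonate) at […] compound, with DMSO vehicle. IC50 derived from the ratio of luciferase activity to GFP fluorescence.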

[3] = system: liver organoids; test: Real-time quantitative PCR of lipogenesis- and fibrosis-related genes in fatty liver organoids; format: cell-based, mice; settings: mouse fatty liver organoids, 1 and 3 μM, 72 hours, qPCR
Source text: Liver samples or liver organoid samples were homogenized in TRI Reagent (T9424, Sigma), and total RNA was extracted according to the manufacturer's instructions. Equal amounts of RNA template were used to synthesize cDNA with oligo dT primers and MLV reverse transcriptase (Promega). Quantitative data for genes were collected using the Bio-Rad CFX96 real-time PCR system, and the relative amount of gene mRNA was quantified using the comparative CT method.
C57BL/6N mice were fed with fatty liver-inducing diet (TrophicDiet, TP2630052A, containing 10.2% kcal protein, 37.3% kcal carbohydrate, and 52.6% kcal fat) and fructose-containing drinking water (23.1 g of fructose and 18.9 g of dextrose were dissolved in 1 L of water, then filtered and sterilized) for a total of 16 weeks starting at 12 weeks of age to generate a fatty liver model. To generate fatty liver organoids, liver tissues from mice with fatty liver were minced and digested in digestion buffer at 37° C. for 30 to 60 minutes. The digestion buffer included DMEM/F-12 (Cytiva, SH30023.01), 2.5 mg/mL collagenase D (Roche, COLLD-RO), and 0.1 mg/mL DNaseI (Sigma-Aldrich, DN25). […]
To distinguish whether the inhibitory effect of 25-hydroxylanosterol is directly based on its effect on the liver or a systemic effect, we utilized 3D liver organoids as an in vitro model for the study of fatty liver to analyze the effect of 25-hydroxylanosterol on lipogenesis and fibrosis marker expression in liver organoids. […] RNA from the organoids was collected and analyzed for the differential expression of lipogenesis-related genes (Hmgcs, Hmgcr, SCD1, and FASN) and fibrosis markers (αSMA and Colla1) using fluorescent real-time quantitative PCR.
In FIGS. 35 and 36, data are represented as mean±standard deviation. P values were calculated using one-way ANOVA; ns indicates no statistical difference; * indicates P<0.05; ** indicates P<0.01; *** indicates P<0.001. In FIGS. 47 and 53, quantitative analysis was performed using ImageJ software. […] P values were calculated using one-way ANOVA; * indicates P<0.05; ** indicates P<0.01; *** indicates P<0.001.

SMILES: C[C@H](CCCC(O)c1ccccc1OC(F)(F)F)[C@H]1CC[C@H]2[C@@H]3CC[C@H]4[C@@H](O)[C@@H](O)CC[C@]4(C)[C@H]3CC[C@]12C (stereo partly drawn) [compound 317, 24-(hydroxy{2-[(trifluoromethyl)oxy]phenyl}methyl)-5α-cholan-3β,4β-diol]
- half-life at 1 µM [1]: 2.28 h
- IC50 [2]: 0.14 µM

SMILES: CC[C@H]1[C@@H](O)[C@@H]2[C@H](CC[C@]3(C)[C@@H]([C@H](C)CCC(=O)O)CC[C@@H]23)[C@@]2(C)CC[C@@H](O)C[C@@H]12 [obeticholic acid, Obeticholic acid, reference compound]
- expression levels of lipogenesis-related genes (Hmgcs, Hmgcr, SCD1, and FASN) [3]: failed to inhibit
